{
  "source": "paper PMC11882969",
  "about": "(Nature Communications, 2025)",
  "target": "hCB2 (Homo sapiens, UniProt P34972)",
  "sequence (P34972 whole entry)": "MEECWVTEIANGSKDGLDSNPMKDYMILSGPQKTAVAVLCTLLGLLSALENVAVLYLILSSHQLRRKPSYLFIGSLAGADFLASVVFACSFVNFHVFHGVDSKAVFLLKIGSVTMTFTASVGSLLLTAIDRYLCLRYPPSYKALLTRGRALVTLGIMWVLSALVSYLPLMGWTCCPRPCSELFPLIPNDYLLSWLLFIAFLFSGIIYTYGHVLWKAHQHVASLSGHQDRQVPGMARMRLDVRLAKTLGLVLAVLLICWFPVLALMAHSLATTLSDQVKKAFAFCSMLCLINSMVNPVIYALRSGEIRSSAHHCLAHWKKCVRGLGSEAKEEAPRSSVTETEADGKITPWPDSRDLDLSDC",
  "assay": "bioSensAll ebBRET signaling profiling, hCB2",
  "assay_type": "cell-based",
  "design": "host or cells: HEK293SL cells, transient PEI transfection",
  "conditions": "for RE, relative efficacy: vs CP-55,940; for G13 hCB2 / G15 hCB2 / Gq hCB2 / Gs hCB2: raw signal",
  "key": {"[1]": {"conditions": "Log [Compound] (M) not printed (line after -13)"}},
  "note": "Where “and” joins values, the source holds several entries; their conditions need not be identical. Equal entries are not always repeated.",
  "data": [
    {"smiles": "COC(=O)C(C)(NC(=O)c1cc(C)n(-c2cccc(C(F)(F)F)c2)n1)c1cccs1", "note": "(stereo not drawn) [‘4042]", "values": [
      {"measurement": "Barr2+GRK2 hCB2", "setting": "Log [Compound] (M) -4.22186", "result": "36.6847 and 35.0372"},
      {"measurement": "Gi1 hCB2", "setting": "Log [Compound] (M) -4.22186", "result": "75.671 and 56.3726"},
      {"measurement": "Gi2 hCB2", "setting": "Log [Compound] (M) -4.22186", "result": 69.4439},
      {"measurement": "GoB hCB2", "setting": "Log [Compound] (M) -4.22186", "result": "52.0294 and 57.6529"},
      {"measurement": "Gz hCB2", "setting": "Log [Compound] (M) -4.22186", "result": 65.903},
      {"measurement": "Barr2+GRK2 hCB2", "setting": "Log [Compound] (M) -4.63927", "result": "30.1112 and 31.9388"},
      {"measurement": "Gi1 hCB2", "setting": "Log [Compound] (M) -4.63927", "result": "84.2769 and 74.9725"},
      {"measurement": "Gi2 hCB2", "setting": "Log [Compound] (M) -4.63927", "result": 71.4813},
      {"measurement": "GoB hCB2", "setting": "Log [Compound] (M) -4.63927", "result": "57.2898 and 66.4321"},
      {"measurement": "Gz hCB2", "setting": "Log [Compound] (M) -4.63927", "result": 53.7774},
      {"measurement": "Barr2+GRK2 hCB2", "setting": "Log [Compound] (M) -5.05788", "result": "34.1076 and 21.894"},
      {"measurement": "Gi1 hCB2", "setting": "Log [Compound] (M) -5.05788", "result": "83.7031 and 72.7366"},
      {"measurement": "Gi2 hCB2", "setting": "Log [Compound] (M) -5.05788", "result": 65.5506},
      {"measurement": "GoB hCB2", "setting": "Log [Compound] (M) -5.05788", "result": "61.864 and 59.6527"},
      {"measurement": "Gz hCB2", "setting": "Log [Compound] (M) -5.05788", "result": 52.6347},
      {"measurement": "Barr2+GRK2 hCB2", "setting": "Log [Compound] (M) -5.47381", "result": "32.3148 and 21.944"},
      {"measurement": "Gi1 hCB2", "setting": "Log [Compound] (M) -5.47381", "result": "87.9518 and 88.1124"},
      {"measurement": "Gi2 hCB2", "setting": "Log [Compound] (M) -5.47381", "result": 70.9363},
      {"measurement": "GoB hCB2", "setting": "Log [Compound] (M) -5.47381", "result": "59.0585 and 62.0173"},
      {"measurement": "Gz hCB2", "setting": "Log [Compound] (M) -5.47381", "result": 46.8061},
      {"measurement": "Barr2+GRK2 hCB2", "setting": "Log [Compound] (M) -5.89285", "result": "35.0413 and 26.4416"},
      {"measurement": "Gi1 hCB2", "setting": "Log [Compound] (M) -5.89285", "result": "81.7804 and 90.251"},
      {"measurement": "Gi2 hCB2", "setting": "Log [Compound] (M) -5.89285", "result": 70.7805},
      {"measurement": "GoB hCB2", "setting": "Log [Compound] (M) -5.89285", "result": "65.2185 and 62.9481"},
      {"measurement": "Gz hCB2", "setting": "Log [Compound] (M) -5.89285", "result": 53.1772},
      {"measurement": "Barr2+GRK2 hCB2", "setting": "Log [Compound] (M) -6.31878", "result": "26.1148 and 22.8935"},
      {"measurement": "Gi1 hCB2", "setting": "Log [Compound] (M) -6.31878", "result": "87.5021 and 87.0754"},
      {"measurement": "Gi2 hCB2", "setting": "Log [Compound] (M) -6.31878", "result": 73.3371},
      {"measurement": "GoB hCB2", "setting": "Log [Compound] (M) -6.31878", "result": "60.7357 and 59.0239"},
      {"measurement": "Gz hCB2", "setting": "Log [Compound] (M) -6.31878", "result": 50.6781},
      {"measurement": "Barr2+GRK2 hCB2", "setting": "Log [Compound] (M) -6.72585", "result": "32.0907 and 32.9383"},
      {"measurement": "Gi1 hCB2", "setting": "Log [Compound] (M) -6.72585", "result": "83.1759 and 83.592"},
      {"measurement": "Gi2 hCB2", "setting": "Log [Compound] (M) -6.72585", "result": 72.2081},
      {"measurement": "GoB hCB2", "setting": "Log [Compound] (M) -6.72585", "result": "57.8234 and 61.5268"},
      {"measurement": "Gz hCB2", "setting": "Log [Compound] (M) -6.72585", "result": 54.4186},
      {"measurement": "Barr2+GRK2 hCB2", "setting": "Log [Compound] (M) -7.14267", "result": "30.5594 and 25.1923"},
      {"measurement": "Gi1 hCB2", "setting": "Log [Compound] (M) -7.14267", "result": "86.1686 and 79.3795"},
      {"measurement": "Gi2 hCB2", "setting": "Log [Compound] (M) -7.14267", "result": 59.0489},
      {"measurement": "GoB hCB2", "setting": "Log [Compound] (M) -7.14267", "result": "60.3698 and 62.0676"},
      {"measurement": "Gz hCB2", "setting": "Log [Compound] (M) -7.14267", "result": "81.8754 and 46.0416"},
      {"measurement": "Barr2+GRK2 hCB2", "setting": "Log [Compound] (M) -7.55284", "result": "24.7329 and 21.1444"},
      {"measurement": "Gi1 hCB2", "setting": "Log [Compound] (M) -7.55284", "result": "76.7565 and 80.3516"},
      {"measurement": "Gi2 hCB2", "setting": "Log [Compound] (M) -7.55284", "result": 59.4123},
      {"measurement": "GoB hCB2", "setting": "Log [Compound] (M) -7.55284", "result": "49.2391 and 57.2756"},
      {"measurement": "Gz hCB2", "setting": "Log [Compound] (M) -7.55284", "result": "76.5196 and 38.421"},
      {"measurement": "Barr2+GRK2 hCB2", "setting": "Log [Compound] (M) -8", "result": "20.8112 and 19.8451"},
      {"measurement": "Gi1 hCB2", "setting": "Log [Compound] (M) -8", "result": "58.7695 and 64.9921"},
      {"measurement": "Gi2 hCB2", "setting": "Log [Compound] (M) -8", "result": 62.9552},
      {"measurement": "GoB hCB2", "setting": "Log [Compound] (M) -8", "result": "43.3382 and 49.9051"},
      {"measurement": "Barr2+GRK2 hCB2", "setting": "Log [Compound] (M) -8.22186", "result": "15.2835 and 10.4"},
      {"measurement": "Gi1 hCB2", "setting": "Log [Compound] (M) -8.22186", "result": "52.319 and 51.5606"},
      {"measurement": "Gi2 hCB2", "setting": "Log [Compound] (M) -8.22186", "result": 51.7297},
      {"measurement": "GoB hCB2", "setting": "Log [Compound] (M) -8.22186", "result": "36.4463 and 41.3775"},
      {"measurement": "Gz hCB2", "setting": "Log [Compound] (M) -8.22186", "result": "67.5634 and 41.7257"},
      {"measurement": "Barr2+GRK2 hCB2", "setting": "Log [Compound] (M) -8.39794", "result": "10.0546 and 6.052"},
      {"measurement": "Gi1 hCB2", "setting": "Log [Compound] (M) -8.39794", "result": "41.3253 and 50.1024"},
      {"measurement": "Gi2 hCB2", "setting": "Log [Compound] (M) -8.39794", "result": 43.6058},
      {"measurement": "GoB hCB2", "setting": "Log [Compound] (M) -8.39794", "result": "31.1707 and 34.2586"},
      {"measurement": "Barr2+GRK2 hCB2", "setting": "Log [Compound] (M) -8.68787", "result": "5.6847 and 8.001"},
      {"measurement": "Gi1 hCB2", "setting": "Log [Compound] (M) -8.68787", "result": "42.5968 and 33.949"},
      {"measurement": "Gi2 hCB2", "setting": "Log [Compound] (M) -8.68787", "result": 35.8583},
      {"measurement": "Gi2 hCB2", "setting": "Log [Compound] (M) -9.15521", "result": 25.8008},
      {"measurement": "Gi2 hCB2", "setting": "Log [Compound] (M) -9.61989", "result": -4.618},
      {"measurement": "Gi2 hCB2", "setting": "Log [Compound] (M) -10.0969", "result": -5.163},
      {"measurement": "Gi2 hCB2", "setting": "Log [Compound] (M) -10.5529", "result": -5.566},
      {"measurement": "Gi2 hCB2", "setting": "Log [Compound] (M) -11.0177", "result": -11.8727},
      {"measurement": "Gi2 hCB2", "setting": "Log [Compound] (M) -11.4949", "result": -13.975},
      {"measurement": "Gi2 hCB2", "setting": "Log [Compound] (M) -11.9208", "result": -11.7429},
      {"measurement": "Gi2 hCB2", "setting": "Log [Compound] (M) -12.3979", "result": -12.3529},
      {"measurement": "Gi2 hCB2", "setting": "Log [Compound] (M) -12.8861", "result": -13.7415},
      {"measurement": "Gi2 hCB2", "setting": "Log [Compound] (M) -13", "result": -11.7689},
      {"measurement": "Barr2+GRK2 hCB2", "setting": "[1]", "result": 1.105},
      {"measurement": "Gi1 hCB2", "setting": "[1]", "result": -2.635},
      {"measurement": "GoB hCB2", "setting": "[1]", "result": -0.7449},
      {"measurement": "Gz hCB2", "setting": "[1]", "result": 1.526},
      {"measurement": "pEC50 [95% CI]", "setting": "hCB2 Barr2 + GRK2", "result": "8.26 [8.1 – 8.5]"},
      {"measurement": "pEC50 [95% CI]", "setting": "hCB2 Gi1", "result": "8.58 [8.5 – 8.7]"},
      {"measurement": "RE, relative efficacy", "setting": "hCB2 Gi1", "result": 0.63},
      {"measurement": "pEC50 [95% CI]", "setting": "hCB2 Gi2", "result": "8.90 [8.8 – 9.0]"},
      {"measurement": "RE, relative efficacy", "setting": "hCB2 Gi2", "result": 0.59},
      {"measurement": "pEC50 [95% CI]", "setting": "hCB2 GoB", "result": "8.60 [8.5 – 8.7]"},
      {"measurement": "RE, relative efficacy", "setting": "hCB2 GoB", "result": 0.47},
      {"measurement": "pEC50 [95% CI]", "setting": "hCB2 Gz", "result": "8.87 [8.5 – 9.3]"},
      {"measurement": "RE, relative efficacy", "setting": "hCB2 Gz", "result": 0.38},
      {"measurement": "RE, relative efficacy", "setting": "hCB2 ßarr2+GRK2", "result": 0.82},
      {"measurement": "G13 hCB2", "setting": "Log [Compound] (M) -4.22186", "result": 669},
      {"measurement": "G15 hCB2", "setting": "Log [Compound] (M) -4.22186", "result": 923},
      {"measurement": "Gq hCB2", "setting": "Log [Compound] (M) -4.22186", "result": 1840},
      {"measurement": "Gs hCB2", "setting": "Log [Compound] (M) -4.22186", "result": 9076},
      {"measurement": "G13 hCB2", "setting": "Log [Compound] (M) -4.63927", "result": 511},
      {"measurement": "G15 hCB2", "setting": "Log [Compound] (M) -4.63927", "result": 896},
      {"measurement": "Gq hCB2", "setting": "Log [Compound] (M) -4.63927", "result": 1838},
      {"measurement": "Gs hCB2", "setting": "Log [Compound] (M) -4.63927", "result": 9146}
    ]}
  ]
}
